Where two headings read alike, the source gives them in different places.
Assays:
Format in all cases: cell-based
HIV-1 A-17 MDR (B-NNRTI) = experiment: PBMC multi-round infection assay, resistant isolate A-17
Experimental: (§1) Based on a preliminary screening, conjugates 5 and 8 were evaluated for their ability to inhibit a drug-resistant virus in a peripheral blood mononuclear cell (PBMC) assay. In this assay, FLT, 5, and 8 were tested against B- and C-wild type and A-17 and 4755–5 multidrug-resistant (MDR) clinical isolates of HIV-1, where compounds were incubated with PBMCs for 6 h and then washed off before the addition of the virus and further culture for 7 days.
(§2) For the assessment of compounds against the wild type (WT; R5; clones = 94US3393IN [B subtype] and 98USMSC5016 [C subtype]) and drug-resistant (clones = 4755−5 and A17) HIV-1 clinical isolates, PHA-P stimulated cells from at least two normal donors were pooled, diluted in fresh media, and plated in the interior wells of a 96-well round-bottom microplate. Pooling PBMCs from more than one donor was used to minimize the variability observed between the individual donors, which results from the quantitative and qualitative differences in HIV infection and overall response to the PHA and IL-2 of primary lymphocyte populations. Each plate contained virus/cell control wells (cells + virus), experimental wells (drug + cells + virus), and compound control wells (drug + media, no cells, necessary for MTS monitoring of cytotoxicity). Test drug dilutions were prepared in microtiter tubes, and each concentration was placed in appropriate wells. Following the addition of the drug dilutions to the PBMCs, a predetermined dilution of virus stock was then placed in each test well (final MOI ≅ 0.1). Because HIV-1 is not cytopathic to PBMCs, the same assay plate can be used for both the antiviral efficacy and cytotoxicity measurements. Compounds were incubated with virus and cells in a 96-well format for 6 h. The cells were then washed by removing 75% of the medium (150 μL) and replacing it with 150 μL of fresh (no drug) medium. The plates were then centrifuged (∼200 g) for 10 min, after which 150 μL of the medium was removed, and an additional 150 μL of fresh medium was added to each well and further incubated for 6 days or until peak reverse transcriptase (RT) activity was detected. A microtiter plate-based RT reaction was utilized. Incorporated radioactivity (counts per minute, CPM) was quantified using standard liquid scintillation techniques. Compound IC50 (50%, inhibition of virus replication) was calculated using statistical software and regression analysis. A cellular uptake study was conducted for fluorescence conjugates 23 and 24 using a previously published procedure with minor modifications. All of the experiments were conducted in triplicate.

[1] = system: cell-associated HIV-1 IIIB (infected SulT1 cells); experiment: Cell-associated transmission assay (IIIB); settings: Human immunodeficiency virus 1, IIIB, read-out: (CA) EC50, Table 2; cell-associated transmission assay (IIIB)
Experimental: (§3) Anti-HIV activities of the compounds were evaluated according to the previously reported procedure. In summary, the HeLa (Human cervical carcinoma: ATCC CCL-2.1) cell line was used to measure the inactivation of both the cell-free virus preparations and virus-infected cell preparations. The cells were plated in culture plates 24 h prior to each experiment. Cell-free viral preparations of HIV-1 strains IIIB (lymphocytotropic strain) and BaL (monocytotropic strain) were used for the cell-free assay. For the cell-associated assay, the SulT1 cells were infected with IIIB virus 5 days prior to the experiment. Cell-free virus and virus-infected cells were mixed with different compounds and diluted to make different concentrations. The mixture was further diluted with the buffer and added to the HeLa cells.

HIV-1 = experiment: Anti-HIV activity overall (cell-free and cell-associated assays) and antiviral index
Text: Table 2, Table 3 and Table 4 illustrate the anti-HIV-1 activities against the cell-free, cell-associated, and multidrug-resistant virus and sperm inhibiting properties of the selected compounds. In summary, the anti-HIV activity of 5′-substituted derivatives of FLT and AZT (5–18) was dependent on the nature of the 5′-substituent. […] None of the other esters were active against cell-associated virus. […] The difference in the activity of fatty acyl derivatives of FLT compared to each other and FLT may be due to their differences in the rate of uptake and intracellular hydrolysis.
By design, the ester moiety in the conjugates needs to be hydrolyzed to render parent nucleosides and fatty acids to produce anti-HIV activity. The anti-HIV activities of 5′-O-ether substituted FLT and AZT (3 and 4, Scheme 2) with a stable tetradecanyl (myristyl) group were compared with hydrolyzable 5′-O-ester substituted FLT and AZT (6 and 7).
as §3

sperm = experiment: Spermicidal activity (sperm viability and motility); settings: abstract; versus N-9 positive control
Experimental: In this study, several fatty acyl conjugates of nucleosides (5–8, 10–12, 15, and 16) were tested for their spermicidal activities. […] Detailed data analysis is available in the Supplementary Materials (Figure S2).
Human T lymphoblastoid cells (CCRF-CEM, ATCC No. CCL-119) were grown to 70% confluency in a culture medium. CCRF-CEM cells were incubated with 10 µM of the compounds and mixed with trypan blue (0.1%) to color the dead cells. The percentage of viability was calculated by using a Cellometer Auto T.4 (Nexcelom Bioscience). The cell viability against the vaginal cells (VK-2/E6E7) was conducted according to the previously reported procedure. The effect of conjugates on the sperm viability and mobility was evaluated as described previously.

Cytotoxicity assay (MTS) = settings: human, HeLa cells (ATCC CCL-2.1), Table 2; MTS; 50% effective concentration
[2] = system: HIV-1 94US3393IN (B-Wild Type); experiment: PBMC multi-round infection assay, clinical isolate 94US3393IN; settings: Human immunodeficiency virus 1
Experimental: as §1, §2

[3] = system: HIV-1 98USMSC5016 (C-Wild Type); experiment: PBMC multi-round infection assay, clinical isolate 98USMSC5016; settings: Human immunodeficiency virus 1
Experimental: as §1, §2

[4] = system: HIV-1 strain IIIB (lymphocytotropic strain); experiment: Single-round infection assay, cell-free X4 virus (lymphocytotropic strain); settings: read-out: (X4) EC50, Table 2, single-round infection assay
Experimental: as §3

[5] = Human immunodeficiency virus 1, PBMC

Structure (SMILES): Cc1cn([C@H]2C[C@H](F)[C@@H](COC(=O)CCCCCCCCCCCN=[N+]=[N-])O2)c(=O)[nH]c1=O [Compound 5, 3′-fluoro-2′,3′-dideoxy-5′-O-(12-azidododecanoyl)thymidine]
- IC50 (HIV-1 A-17 MDR (B-NNRTI); [5]): 0.0044 µM
- IC90 (HIV-1 A-17 MDR (B-NNRTI); [5]): 0.0141 µM
- fold more potent than FLT against A-17 (HIV-1 A-17 MDR (B-NNRTI); versus FLT IC50): at least 6 fold
- EC50 [1]: 12.6 µM
- anti-HIV activity (in words) (HIV-1): significant anti-HIV activity at noncytotoxic concentrations
- antiviral index, times better than AZT (HIV-1; versus AZT): > 30 times
- antiviral index, times better than FLT (HIV-1; versus FLT): > 4 times
- effect on sperm viability (sperm): did not alter vaginal cell and sperm viability
- EC50 (Cytotoxicity assay (MTS)): 1600 µM
- IC50 [2]: 0.0011 µM
- IC90 [2]: 0.0064 µM
- IC50 [3]: 0.0021 µM
- IC90 [3]: 0.0086 µM
- EC50 ([4]; Human immunodeficiency virus 1, IIIB): ≤ 1 µM
- EC50 [4]: 0.9 µM
